Source: patent US20260026501A1, “AGROCHEMICAL COMPOSITION OF SDHI FUNGICIDES” (ADAMA MAKHTESHIM LTD., priority 2022, published 2026)

Experiment: Concentration of the actives by HPLC after storage (storage stability)
Format: physicochemical
Method: The assay of the two Ai's was checked by HPLC Method.
The analytical method included: • 1. Preparation of standard solution. • 2. Sample solution preparation: 200 mg sample was measured in triplicates into 50 ml volumetric flask. • 3. Acetonitrile was added. • 4. Injection of the standard and sample solutions in room temperature.
The concentration was calculated by: […]
The samples were checked for assay after 11 days and 14 days at room temperature and at 54° C. The AI % should not decrease more than 5% after the accelerated stability at 54° C.
The samples were checked for assay after 11 days and 14 days at room temperature and at 54° C.
The AI % should not decrease more than 5% after the accelerated stability at 54° C.

[1] = 11 days after EC preparation (54° C.)
[2] = 11 days after EC preparation (r.t)
[3] = 14 days after EC preparation (54° C.)
[4] = 14 days after EC preparation (r.t)

SMILES	Concentration of the active in formulation A [1] [µg/mL]	Concentration of the active in formulation A [2] [µg/mL]	Concentration of the active in formulation A [3] [µg/mL]	Concentration of the active in formulation A [4] [µg/mL]	Concentration of the active in formulation B (after 14 days (54° C.)) [µg/mL]	Concentration of the active in formulation B (after 14 days (r.t)) [µg/mL]	Concentration of the active in formulation A (after EC preparation) [µg/mL]	Concentration of the active in formulation B (after EC preparation) [µg/mL]
Cn1cc(C(=O)Nc2ccccc2-c2cc(F)c(F)c(F)c2)c(C(F)F)n1 [Fluxapyroxad, 3-(difluoromethyl)-1-methyl-N-(3′,4′,5′-trifluorobiphenyl-2-yl)pyrazole-4-carboxamide]	7500	7500	7500	7400	9000	8800	7500	8900
OC(Cc1ccccc1Cl)(Cn1nc[nH]c1=S)C1(Cl)CC1 (racemic) [Prothioconazole, 2-[(2RS)-2-(1-chlorocyclopropyl)-3-(2-chlorophenyl)-2-hydroxypropyl]-2H-1,2,4-triazole-3(4H)-thione]	14900	15100	14700	14800	14700	14500	15200	15300
